Assay results from patent US10537128B2, “Yeast, yeast extract containing gamma-Glu-Abu, and a method for producing the same” (AJINOMOTO CO., INC., priority 2010, dated 2020).

What was measured:
[1] = test system: kokumi (initial taste, middle-after taste) scored by panelists; test: quantitative organoleptic evaluation test of kokumi-imparting activity; assay type: in vivo, human; settings: for Intensity of kokumi, Initial taste: inosine monophosphate 0.05 g/dl, sodium chloride 0.5 g/dl; for Intensity of kokumi, Initial taste / Intensity of kokumi, Middle-after taste: score 0 control, 3 strong, 5 extremely strong, n=4
Procedure: Degree of kokumi-imparting activity of γ-Glu-Abu was investigated through a quantitative organoleptic evaluation test.
The quantitative organoleptic evaluation test was carried out as follows. Strength of the kokumi-imparting activity of a test compound was measured by using a mixture containing the test compound at 0.001 to 0.5 g/dl in distilled water containing sodium glutamate (0.05 g/dl), inosine monophosphate (0.05 g/dl), and sodium chloride (0.5 g/dl). A sample of the distilled water containing sodium glutamate, inosine monophosphate, and sodium chloride to which any test compound was not added was used as a no addition control. Samples that became acidic relative to the no addition control after dissolution of the test compound were used after pH of them was adjusted with NaOH to be within the range of ±0.2 from that of the no addition control.
The test was performed with organoleptic scores of 0 for the control, 3 for strong effect, and 5 for extremely strong effect, and n=4. Moreover, in order to make the criteria more definite, the scores of 0.001 g/dl of γ-Glu-Val-Gly for the initial taste and the middle-after taste were defined to be 3.0. The “middle-after taste” is a taste sensed in the periods for the middle taste and the aftertaste. Specifically, the initial taste, middle taste, and aftertaste are tastes sensed in the periods of 0 to 2 seconds, 2 to 5 seconds, and after 5 seconds, after eating, respectively, and the “middle-after taste” is a taste sensed in the period from 2 seconds to around 30 seconds. For the scoring, the linear scale method was used, in which determined scores were noted on a straight line on which positions of scores of from −5 to 5 were indicated. The panelists were consisted of persons who had experience of development of seasonings for foodstuffs for one year or longer in total, and could judge the difference of the titers of γ-Glu-Cys-Gly and γ-Glu-Val-Gly added to the tasty and salty solution to be about 10 times (this ability was periodically confirmed).
Kokumi-imparting activities of γ-Glu-Cys and other dipeptides were determined by the same quantitative organoleptic evaluation test as mentioned above.

CaSR = CaSR agonist activity; settings: previously found by the inventors
storage stability = assay type: physicochemical; settings: compared with γ-Glu-Cys
[2] = 0.2 g/dl in distilled water with sodium glutamate 0.05 g/dl
[3] = 0.2 g/dl in the same tasty and salty solution
[4] = 0.01 g/dl in distilled water with sodium glutamate 0.05 g/dl
[5] = 0.01 g/dl in the same tasty and salty solution

CaSR, sequence (P41180 20-1078): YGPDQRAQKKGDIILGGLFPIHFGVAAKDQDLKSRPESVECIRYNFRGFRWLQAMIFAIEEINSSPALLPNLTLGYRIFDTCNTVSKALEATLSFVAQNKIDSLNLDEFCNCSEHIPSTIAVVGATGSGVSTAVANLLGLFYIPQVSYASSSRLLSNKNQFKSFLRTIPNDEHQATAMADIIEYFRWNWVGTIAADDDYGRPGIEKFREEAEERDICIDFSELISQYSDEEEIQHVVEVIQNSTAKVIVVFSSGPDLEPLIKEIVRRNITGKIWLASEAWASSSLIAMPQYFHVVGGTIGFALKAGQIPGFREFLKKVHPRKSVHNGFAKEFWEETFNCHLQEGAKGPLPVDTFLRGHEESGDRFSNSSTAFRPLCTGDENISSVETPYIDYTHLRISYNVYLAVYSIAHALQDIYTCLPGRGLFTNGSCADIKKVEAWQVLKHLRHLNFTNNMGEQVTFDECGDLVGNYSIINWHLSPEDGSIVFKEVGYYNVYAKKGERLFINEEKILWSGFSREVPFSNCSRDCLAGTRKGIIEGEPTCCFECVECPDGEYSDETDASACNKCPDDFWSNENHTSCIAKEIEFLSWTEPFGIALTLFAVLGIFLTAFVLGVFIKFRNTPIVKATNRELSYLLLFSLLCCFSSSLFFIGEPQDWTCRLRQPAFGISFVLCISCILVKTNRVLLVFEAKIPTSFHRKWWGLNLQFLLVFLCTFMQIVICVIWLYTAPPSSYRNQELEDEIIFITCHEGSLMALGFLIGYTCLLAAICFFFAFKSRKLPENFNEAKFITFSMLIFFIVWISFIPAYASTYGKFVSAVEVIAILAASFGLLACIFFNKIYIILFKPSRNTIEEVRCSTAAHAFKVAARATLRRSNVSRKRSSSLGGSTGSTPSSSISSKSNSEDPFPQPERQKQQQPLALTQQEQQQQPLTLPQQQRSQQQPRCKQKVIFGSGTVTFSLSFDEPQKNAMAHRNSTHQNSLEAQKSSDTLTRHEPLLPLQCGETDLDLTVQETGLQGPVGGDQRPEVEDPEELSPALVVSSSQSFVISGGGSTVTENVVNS

| Compound | Intensity of kokumi, Initial taste [1, 2] | Intensity of kokumi, Middle-after taste [1, 3] | Intensity of kokumi, Initial taste [1, 4] | Intensity of kokumi, Middle-after taste [1, 5] | other results |
| --- | --- | --- | --- | --- | --- |
| C[C@H](NC(=O)CC[C@H](N)C(=O)O)C(=O)O [γ-Glu-Ala] | 4.5 | 4.3 |  |  |  |
| N[C@@H](CCC(=O)N[C@@H](CS)C(=O)O)C(=O)O [γ-Glu-Cys, γ-glutamylcysteine] |  |  | 3.1 | 3.1 |  |
| N[C@@H](CCC(=O)N[C@@H](CO)C(=O)O)C(=O)O [γ-Glu-Ser] | 3.6 | 3.0 |  |  |  |
| CC(C)[C@H](NC(=O)CC[C@H](N)C(=O)O)C(=O)O [γ-Glu-Val] |  |  | 3.1 | 2.4 |  |
| L-γ-glutamyl-L-2-aminobutyric acid [γ-Glu-Abu] |  |  |  |  | CaSR agonist activity (in words) (CaSR): high CaSR agonist activity; Intensity of kokumi, Initial taste ([1]; 0.005 g/dl in distilled water with sodium glutamate 0.05 g/dl): 3.8; Intensity of kokumi, Middle-after taste ([1]; 0.005 g/dl in the same tasty and salty solution): 3.2; kokumi-imparting activity (in words) ([1]; addition concentration range 0.001 to 0.5 g/dl): showed kokumi-imparting activity in a broad range; kokumi titer (in words) ([1]; compared with γ-Glu-Ala): extremely high titer; storage stability (in words) (storage stability): superior storage stability |
